Values of other authors in patent publication US20120142730A1 (priority 2010, published 2012).

Conditions: Noseworthy, 2000; cited from earlier work

## CN(C(=O)c1c(O)c2ccccc2n(C)c1=O)c1ccccc1 [roquinimex]
  Safety concerns previously seen: serositis, cardiovascular events and thrombosis
